Results from US4656184A, “2-(N-substituted hydrazone), thiazoles useful as anti-inflammatories” (priority 1982, dated 1987).
Read-outs that look alike come from different tables or passages of the source.

Columns and labels:
[1] = test system: prostanoids; test: Inhibition of the metabolism of 14C-arachidonate in the blood platelets of rabbits: prostanoids route (TxB2, HHT); assay type: cell-based; details: rabbit blood platelets
Procedure: (§1) 1.2. Inhibition of the metabolism of
(§2) ^14 C-Arachidonate in the blood platelets of rabbits
(§3) Preparation of a platelet-rich plasma (PRP)
(§4) A 12 ml blood sample is taken, by the intracardiac route, on ACD (anticoagulant consisting of an aqueous solution containing 0.27 g citric acid, 0.5 g disodium citrate and 0.02 g glucose per 20 ml water), at a rate of 1 volume ACD per 6 volumes blood. The blood is centrifuged at 200 g for 10 minutes and the supernatant (PRP) is collected. It is again centrifuged at 1500 g for 15 minutes. The blood-platelet sediment is washed with Buffer I (NaCl: 8 g/l, Tris: 1.21 g/l, KCl: 0.2 g/l, Gelatin: 2.5 g/l; the material is heated at 90° C. to dissolve the gelatin, after which are added glucose: 1 g/l, and N,N'-ethyleneglycol bis(β-aminoethyl ether,)tetraacetic acid or EGTA: 0.075 g/l). The suspension is centrifuged at 1500 g for 10 minutes, and the sediment is taken up into Buffer II (NaCl: 8 g/l, Tris: 1.21 g/l, KCl: 0.2 g/l, CaCl2 : 0.145 g/l, MgCl2 0.2 g/l, gelatin: 2.5 g/l; this material is heated to 90° C., after which glucose (1 g/l) is added, and the pH is adjusted to a value of 7.4 with 0.1 N HCl),
(§5) Metabolism of ^14 C-Arachidonate
(§6) The blood-platelet suspension (0.4 ml/tube) is pre-incubated at 37° C. for 15 minutes, either with 10 μl DMSO (reference), or with varying concentrations of products to be treated dissolved in 10 μl DMSO.
(§7) The incubation is effected in the presence of ^14 C-Arachidonate (1 μg, 0.2 μCi) distributed within 0.1 ml Buffer II. It is blocked after 15 minutes by means of 50 μl citric acid and 250 μl saturated NaCl.

[2] = test system: 15 HETE; test: Metabolism of 14C-arachidonate in rabbit peritoneal PMNs: 15 HETE; assay type: cell-based; details: 15 HETE formation, n.i. = no inhibition
Procedure: (§8) Preparation of a suspension of rabbit PMNs
(§9) The peritoneal leukocytes of rabbits are obtained and prepared according to the technique described by P. Borgeat and B. Samuelson (J. Biol. Chem. 254, n° 8, p. 2643, 1979).
as §5
(§10) The incubation and extraction methods are those described by J. Y. Vanderhoek & co-workers (J. Biol. Chem. […], 21, 10064, 1980).
(§11) The percent inhibition of the 5-lipoxygenase is determined as a function of the concentration of each compound. The concentration of product that inhibits the metabolism by a factor of 50% (IC50) is inferred from those curves.

[3] = biological target: T1, 12-lipoxygenase (Oryctolagus cuniculus, UniProt G1U492); test: Inhibition of the metabolism of 14C-arachidonate in the blood platelets of rabbits: 12-lipoxygenase route (12-HETE); assay type: cell-based; details: rabbit blood platelets; for IC50 / IC50 in the blood platelets, 12 HETE: 12 HETE, n.i. = no inhibition
T1 construct: metabolism of ^14 C-Arachidonate in the blood platelets of rabbits; endogenous in cells; host or cells: washed rabbit blood platelets (from platelet-rich plasma)
T1 sequence (G1U492 1-663): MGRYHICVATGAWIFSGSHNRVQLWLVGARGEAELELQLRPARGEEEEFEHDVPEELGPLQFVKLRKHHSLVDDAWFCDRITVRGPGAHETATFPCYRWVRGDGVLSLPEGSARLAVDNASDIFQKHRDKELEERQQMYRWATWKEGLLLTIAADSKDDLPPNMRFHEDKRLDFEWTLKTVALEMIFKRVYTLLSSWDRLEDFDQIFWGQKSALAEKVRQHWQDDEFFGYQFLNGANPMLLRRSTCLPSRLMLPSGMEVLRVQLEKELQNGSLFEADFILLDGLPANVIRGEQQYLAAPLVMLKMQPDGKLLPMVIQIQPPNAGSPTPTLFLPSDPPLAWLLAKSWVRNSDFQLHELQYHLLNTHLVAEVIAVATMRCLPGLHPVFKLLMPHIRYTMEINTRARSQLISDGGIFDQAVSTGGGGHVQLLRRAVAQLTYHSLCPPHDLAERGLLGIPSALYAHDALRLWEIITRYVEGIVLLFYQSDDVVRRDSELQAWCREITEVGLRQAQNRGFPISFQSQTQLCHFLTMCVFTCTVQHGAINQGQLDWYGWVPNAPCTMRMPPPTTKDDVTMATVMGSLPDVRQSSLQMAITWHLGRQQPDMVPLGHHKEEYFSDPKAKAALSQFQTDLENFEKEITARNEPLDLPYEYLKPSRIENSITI
Procedure: as §1, §2, §3, §4, §5, §6, §7

[4] = biological target: T2, 5-lipoxygenase of the peritoneal leukocytes of rabbits (PMNs) (Oryctolagus cuniculus, UniProt G1SNX0); test: Inhibition of the 5-lipoxygenase of the peritoneal leukocytes of rabbits (PMNs), metabolism of 14C-arachidonate; assay type: cell-based; details: rabbit peritoneal PMNs, n.i. = no inhibition
T2 construct: metabolism of ^14 C-AA in the peritoneal PMNs of rabbits; endogenous in cells; host or cells: rabbit peritoneal polymorphonuclear leukocytes (suspension)
T2 sequence (G1SNX0 1-674): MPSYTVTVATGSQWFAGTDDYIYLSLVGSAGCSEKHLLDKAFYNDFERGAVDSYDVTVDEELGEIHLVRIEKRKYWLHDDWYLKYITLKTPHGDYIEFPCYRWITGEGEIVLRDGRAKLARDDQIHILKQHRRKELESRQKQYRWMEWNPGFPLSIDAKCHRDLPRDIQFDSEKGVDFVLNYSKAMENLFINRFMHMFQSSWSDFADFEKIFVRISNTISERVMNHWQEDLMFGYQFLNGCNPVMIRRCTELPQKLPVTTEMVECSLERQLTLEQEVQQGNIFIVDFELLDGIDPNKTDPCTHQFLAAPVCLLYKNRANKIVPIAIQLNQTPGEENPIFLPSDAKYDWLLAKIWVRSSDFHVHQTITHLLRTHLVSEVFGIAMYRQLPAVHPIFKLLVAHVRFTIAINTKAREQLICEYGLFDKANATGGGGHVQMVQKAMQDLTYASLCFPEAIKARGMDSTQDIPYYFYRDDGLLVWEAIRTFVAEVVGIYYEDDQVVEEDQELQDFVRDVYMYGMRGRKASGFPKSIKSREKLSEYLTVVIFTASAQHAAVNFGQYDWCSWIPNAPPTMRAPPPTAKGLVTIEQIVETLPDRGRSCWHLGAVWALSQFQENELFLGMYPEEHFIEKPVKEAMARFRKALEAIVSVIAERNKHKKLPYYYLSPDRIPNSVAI
Procedure: 1.1. Inhibition of the 5-lipoxygenase of the peritoneal leukocytes of rabbits (PMNs)
as §8, §9, §5, §10, §11

[5] = test system: edema of the ear in rats; test: Cutaneous anti-inflammatory activity: inhibition of the edema of the ear in rats following topic administration; assay type: in vivo; details: rat ear edema, topical
Procedure: Cutaneous anti-inflammatory activity determined by the inhibition of the edema of the ear in rats following topic administration. This activity is determined by means of the method according to G. Tonelli and co-workers (Endocrinology, 1965, 77, 625-634). The effect of various concentrations of each compound is determined in at least seven rats. Inflammation is inhibited by a factor of 50% at the following concentrations: […]

[6] = Oryctolagus cuniculus, Platelet, HHT, read-out: IC50 in the blood platelets, HHT
[7] = thromboxane B2, read-out: IC50 in the blood platelets, T × B2
[8] = 5 HETE formation, read-out: IC50 in the PMNs, 5 HETE
[9] = LTB4 formation, read-out: IC50 in the PMNs, LTB4
[10] = HHT, read-out: IC50 in the blood platelets, HHT
[11] = Oryctolagus cuniculus, Platelet, thromboxane B2, read-out: IC50 in the blood platelets, T × B2

| SMILES | IC50 [1, 6] [µM] | IC50 [1, 7] [µM] | IC50 [3] [µM] | IC50 [4, 8] [µM] | IC50 [4, 9] [µM] | IC50 [1, 10] [µM] | other results |
| --- | --- | --- | --- | --- | --- | --- | --- |
| CCOC(=O)CCCC(C)=NNc1nccs1 [Example 1] | > 50 | > 50 | > 50 | < 2 | < 2 |  | IC50 ([2]; Oryctolagus cuniculus): > 50 µM |
| CC(=O)Oc1ccccc1C(=O)O [Aspirin] |  |  |  |  |  |  | inhibition of the 12-lipoxygenase route (chromatographic profile, FIG. 3b) [3]: does not inhibit the 12-lipoxygenase route; concentration at which inflammation is inhibited by a factor of 50% ([5]; at least seven rats): 70 mg/mL; concentration at which inflammation is inhibited by a factor of 50% ([5]; molar value in parentheses): 233 µmol/mL |
| c1ccc2c(c1)CCCC2=NNc1nccs1 [Example 7a] |  | 5 |  | 5 |  | 15 | IC50 [2]: 2 µM; IC50 in the blood platelets, 12 HETE [3]: n.i. |
| CC(=NNc1nccs1)c1ccccc1N [Example 15] | 25 |  |  | < 25 | < 25 |  | IC50 [1, 11]: < 25 µM; IC50 in the blood platelets, 12 HETE [3]: n.i. |
| CC(=NNc1nccs1)c1cccs1 [Example 3a] |  | 13 | 30 | 15 |  | 21 | IC50 ([2]; Oryctolagus cuniculus): 40 µM |
| CN1CCN(C(=NNc2ccccc2)c2ccccc2)CC1 [Example 23] | 25 |  | 25 | 25 | 25 |  | IC50 [1, 11]: 25 µM |
| CC(=NNc1nccs1)c1cccs1 [Example 3d] |  | 10 | 22 | < 2 | 2 | 50 | IC50 in the PMNs, 15 HETE [2]: n.i. |
| C[C@@H]1C[C@H]2[C@@H]3CCC4=CC(=O)C=C[C@]4(C)[C@@]3(F)[C@@H](O)C[C@]2(C)[C@@]1(O)C(=O)CO [Dexamethasone] |  |  |  |  |  |  | concentration at which inflammation is inhibited by a factor of 50% ([5]; at least seven rats): 1 mg/mL; concentration at which inflammation is inhibited by a factor of 50% ([5]; molar value in parentheses): 2.5 µmol/mL |
| CC(=NNc1nccs1)c1cccs1 [Example 3] |  | 50 | 3 | 18 | 7 | 20 | IC50 in the PMNs, 15 HETE [2]: n.i. |
